Experimental data reported in BindingDB's records for doi:10.1021/bi3009278 (University of Wisconsin, 2012).

Target: Lysine-specific demethylase 5A (Homo sapiens, UniProt P29375)
Assay: Fluorescence Polarization Binding Assay

Sequence of Lysine-specific demethylase 5A (P29375 whole entry): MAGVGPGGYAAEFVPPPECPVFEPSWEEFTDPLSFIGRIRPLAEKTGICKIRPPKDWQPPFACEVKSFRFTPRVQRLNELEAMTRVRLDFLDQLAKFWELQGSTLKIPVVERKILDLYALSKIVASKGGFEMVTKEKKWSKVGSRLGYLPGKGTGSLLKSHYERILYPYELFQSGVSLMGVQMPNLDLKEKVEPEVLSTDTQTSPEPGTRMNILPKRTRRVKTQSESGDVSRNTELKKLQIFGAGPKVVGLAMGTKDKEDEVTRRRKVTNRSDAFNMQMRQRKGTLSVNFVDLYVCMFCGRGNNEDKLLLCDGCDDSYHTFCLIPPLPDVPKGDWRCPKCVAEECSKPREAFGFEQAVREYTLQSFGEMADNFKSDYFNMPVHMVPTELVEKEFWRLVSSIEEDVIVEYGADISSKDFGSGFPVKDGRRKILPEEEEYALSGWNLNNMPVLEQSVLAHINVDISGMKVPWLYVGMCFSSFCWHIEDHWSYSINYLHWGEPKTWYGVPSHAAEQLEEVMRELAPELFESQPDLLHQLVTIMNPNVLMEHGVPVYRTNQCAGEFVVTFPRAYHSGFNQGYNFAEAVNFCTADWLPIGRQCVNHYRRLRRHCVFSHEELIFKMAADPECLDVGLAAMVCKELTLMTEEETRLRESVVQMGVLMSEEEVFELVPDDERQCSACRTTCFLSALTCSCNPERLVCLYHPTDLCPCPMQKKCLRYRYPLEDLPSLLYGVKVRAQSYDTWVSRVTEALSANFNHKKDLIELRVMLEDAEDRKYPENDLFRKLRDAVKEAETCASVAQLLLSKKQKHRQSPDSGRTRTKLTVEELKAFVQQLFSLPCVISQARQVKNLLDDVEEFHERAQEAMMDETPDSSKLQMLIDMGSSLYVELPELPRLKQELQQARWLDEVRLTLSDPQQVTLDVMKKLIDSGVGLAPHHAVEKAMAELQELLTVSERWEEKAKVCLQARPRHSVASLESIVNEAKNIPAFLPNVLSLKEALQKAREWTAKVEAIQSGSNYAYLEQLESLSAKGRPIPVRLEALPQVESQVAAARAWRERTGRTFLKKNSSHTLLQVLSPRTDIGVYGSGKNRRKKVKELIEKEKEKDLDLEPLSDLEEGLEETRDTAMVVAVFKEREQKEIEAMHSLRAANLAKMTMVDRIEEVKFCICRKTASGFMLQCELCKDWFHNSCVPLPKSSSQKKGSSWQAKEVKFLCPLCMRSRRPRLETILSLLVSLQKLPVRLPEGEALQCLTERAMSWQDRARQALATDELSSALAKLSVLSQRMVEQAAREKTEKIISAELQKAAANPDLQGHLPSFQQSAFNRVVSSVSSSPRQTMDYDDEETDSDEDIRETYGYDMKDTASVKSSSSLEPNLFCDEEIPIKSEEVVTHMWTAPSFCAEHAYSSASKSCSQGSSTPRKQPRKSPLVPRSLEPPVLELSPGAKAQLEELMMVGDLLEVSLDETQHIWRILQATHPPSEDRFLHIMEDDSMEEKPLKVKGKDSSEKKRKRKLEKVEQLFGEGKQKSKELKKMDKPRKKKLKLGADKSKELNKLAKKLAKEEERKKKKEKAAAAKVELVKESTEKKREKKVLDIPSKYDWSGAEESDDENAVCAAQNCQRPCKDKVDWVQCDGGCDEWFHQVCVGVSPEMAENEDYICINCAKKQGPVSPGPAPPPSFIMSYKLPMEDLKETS

SMILES | IC50 [µM]
CCCCc1oc2ccccc2c1C(=O)c1cc(I)c(OCC[N+](C)(C)C)c(I)c1 [WAG-003] | 30
CCCCc1oc2ccccc2c1C(=O)c1cc(I)c(OCCN)c(I)c1 [Di-N-desethylaminodarone] | 26
